Measured values from ChEMBL document CHEMBL1201862, “PubChem BioAssay data set” (2004).
Values belong to the compound of their own block, whether it stands above or below them. The source made the active and inactive calls.

Key:
[1] = HeLa cell cytotoxicity, dose response, cytotoxicity control for MgcRacGAP inhibitor project (AID 624300); format: functional
[2] = biological target: T1, Rac GTPase-activating protein 1 (Homo sapiens, UniProt Q9H0H5); test: MgcRacGAP GTPase-activating activity inhibitors, confirmation, biochemical, ADP Hunter fluorescence, primary and confirmatory (AID 624330); format: functional
T1 sequence (Q9H0H5 whole entry): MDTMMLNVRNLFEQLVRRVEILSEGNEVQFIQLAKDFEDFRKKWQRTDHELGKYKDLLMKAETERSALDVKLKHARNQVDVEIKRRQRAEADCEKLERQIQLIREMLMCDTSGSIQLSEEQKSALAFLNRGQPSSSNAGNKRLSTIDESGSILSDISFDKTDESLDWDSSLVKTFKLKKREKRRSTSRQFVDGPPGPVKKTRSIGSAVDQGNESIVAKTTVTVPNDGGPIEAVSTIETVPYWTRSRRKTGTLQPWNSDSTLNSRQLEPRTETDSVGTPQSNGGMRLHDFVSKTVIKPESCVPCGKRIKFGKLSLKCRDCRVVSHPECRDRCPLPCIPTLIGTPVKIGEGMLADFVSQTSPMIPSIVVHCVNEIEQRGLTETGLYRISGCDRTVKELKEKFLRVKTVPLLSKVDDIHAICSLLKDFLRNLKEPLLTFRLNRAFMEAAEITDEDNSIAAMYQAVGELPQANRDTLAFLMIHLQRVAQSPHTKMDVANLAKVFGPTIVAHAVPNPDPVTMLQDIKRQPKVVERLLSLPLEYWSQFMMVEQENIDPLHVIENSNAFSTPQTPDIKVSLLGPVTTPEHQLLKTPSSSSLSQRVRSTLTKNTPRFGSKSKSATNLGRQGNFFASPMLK

[3] = biological target: Luciferin 4-monooxygenase (Photinus pyralis, UniProt P08659); test: firefly luciferase enzyme inhibitors, dose response, biochemical, luminescence (AID 1891)
[4] = Luminescence Cell-Based Dose Confirmation HTS to Identify Inhibitors of Platelet Dense Granule Release. [Related pubchem assays: 1663 (Primary HTS), 1678 (Summary of Project)]; format: functional
Caspase-6 = biological target: T2, Caspase-6 (Homo sapiens, UniProt P55212); test: human caspase-6 inhibitors, dose response, biochemical, VEID-R110 fluorescence, cherry-pick (AID 720632)
T2 sequence (P55212 whole entry): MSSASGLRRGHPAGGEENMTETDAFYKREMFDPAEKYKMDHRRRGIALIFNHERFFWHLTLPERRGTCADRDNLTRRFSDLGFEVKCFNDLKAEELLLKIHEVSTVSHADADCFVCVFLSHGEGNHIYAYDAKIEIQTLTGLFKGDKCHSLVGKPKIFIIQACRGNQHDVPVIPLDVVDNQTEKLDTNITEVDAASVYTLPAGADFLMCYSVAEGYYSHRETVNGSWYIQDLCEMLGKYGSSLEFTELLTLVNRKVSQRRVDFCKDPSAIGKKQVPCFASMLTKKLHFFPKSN

[5] = biological target: Disintegrin and metalloproteinase domain-containing protein 17 (Homo sapiens, UniProt P78536); test: exosite inhibitors of ADAM17, dose response, biochemical (AID 743260)
[6] = ADAM10 protease inhibitors, dose response, selectivity assay for ADAM17 exosite inhibitor project, biochemical, FRET peptide substrate, recombinant human ADAM10 (AID 743259);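 note: ADAM10 enzyme cleaving a FRET peptide substrate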
[7] = biological target: T3, Low molecular weight phosphotyrosine protein phosphatase (Homo sapiens, UniProt P24666); format: functional; details: read-out: IC50_Mean;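 note: Dose-response confirmation assay measuring inhibition of LMPTP enzyme activity by fluorescence intensity read-out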
T3 sequence (P24666 whole entry): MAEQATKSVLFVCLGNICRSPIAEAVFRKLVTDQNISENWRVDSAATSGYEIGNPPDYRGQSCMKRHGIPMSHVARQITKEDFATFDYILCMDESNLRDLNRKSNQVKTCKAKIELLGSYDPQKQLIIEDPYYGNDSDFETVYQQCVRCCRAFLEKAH

Fatty acid synthase [8] = biological target: T4, Fatty acid synthase (Homo sapiens, UniProt P49327); test: FAS thioesterase domain inhibitors, dose response, biochemical, endpoint fluorescence intensity, uHTS hits (AID 624327); format: functional;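 note: fluorescence from hydrolysis of an O-methyl fluorescein acyl ester substrate by the enzyme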
Fatty acid synthase [9] = biological target: T4, Fatty acid synthase; test: FAS thioesterase domain inhibitors, dose response, biochemical, kinetic fluorescence intensity (AID 624326); format: functional;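 note: rate of fluorescence rise from hydrolysis of a fluorogenic O-methyl fluorescein ester substrate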
[10] = inhibitors of HIV Env-driven cell fusion, dose response, cherry-pick (AID 652057); format: functional, cell-based
[11] = ZM109 Env clade C HIV-1 fusion inhibitors, dose response, HeLa effector, CEM target cells, luciferase, cherry-pick (AID 652058); format: functional, cell-based
[12] = off-target signal loss in HeLa-CEM21 co-culture – HeLa F-luc CTL cells, cherry-picked, counter-screen for HIV-1 Env fusion inhibitor project, dose response (AID 652040); format: functional, cell-based;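 note: potency for signal decrease marking cytotoxic or nonspecific inhibition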
[13] = inhibitors of clade B AD8 Env fusion, dose response, cell-based, cherry-pick (AID 652062); format: functional;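 note: luciferase signal from cell-cell fusion driven by HIV-1 clade B AD8 Env; potency is for inhibitors of fusion seen as a drop in luminescence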
[14] = biological target: Voltage-dependent T-type calcium channel subunit alpha-1H (Homo sapiens, UniProt O95180); format: functional;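 note: channel activity triggered by adding a high calcium stimulation buffer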
Cysteine protease ATG4B = biological target: T5, Cysteine protease ATG4B (Homo sapiens, UniProt Q9Y4P1); format: functional;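 note: Fluorescence-based dose-response confirmation assay measuring inhibition of ATG4B activity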
T5 sequence (Q9Y4P1 whole entry): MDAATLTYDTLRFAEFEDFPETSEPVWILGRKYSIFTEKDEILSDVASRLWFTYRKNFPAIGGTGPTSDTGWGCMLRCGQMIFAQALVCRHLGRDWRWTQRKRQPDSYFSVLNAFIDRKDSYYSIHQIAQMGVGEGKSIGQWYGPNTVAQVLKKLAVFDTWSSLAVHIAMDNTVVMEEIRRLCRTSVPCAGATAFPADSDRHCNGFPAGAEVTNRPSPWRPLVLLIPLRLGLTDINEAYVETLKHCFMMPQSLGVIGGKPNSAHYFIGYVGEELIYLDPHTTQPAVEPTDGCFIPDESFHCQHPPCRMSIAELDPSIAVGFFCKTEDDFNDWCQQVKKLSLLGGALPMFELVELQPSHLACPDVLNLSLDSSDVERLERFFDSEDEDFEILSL

Phospholipase A2 = Phospholipase A2 (Homo sapiens, UniProt P04054); format: functional;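 note: confirmatory dose-response counterscreen on phospholipase A2, testing hits that came from an ultra-high-throughput screen for ATG4B inhibitors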
Paired box protein Pax-8 = Paired box protein Pax-8 (Homo sapiens, UniProt Q06710); test: inhibitors of PAX8-driven TPO luciferase reporter, dose response, RMG-I cells, cherry-pick (AID 687027); format: functional, cell-based;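 note: luciferase reporter driven by Pax8 target thyroperoxidase promoter measured by SteadyGlo luminescence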
[15] = A2780 ovarian cancer cell cytotoxicity, dose response, cytotoxicity control, plate reader, dry powder samples (AID 743046); format: functional, cell-based

T4 sequence (P49327 whole entry, the tested form may be a part): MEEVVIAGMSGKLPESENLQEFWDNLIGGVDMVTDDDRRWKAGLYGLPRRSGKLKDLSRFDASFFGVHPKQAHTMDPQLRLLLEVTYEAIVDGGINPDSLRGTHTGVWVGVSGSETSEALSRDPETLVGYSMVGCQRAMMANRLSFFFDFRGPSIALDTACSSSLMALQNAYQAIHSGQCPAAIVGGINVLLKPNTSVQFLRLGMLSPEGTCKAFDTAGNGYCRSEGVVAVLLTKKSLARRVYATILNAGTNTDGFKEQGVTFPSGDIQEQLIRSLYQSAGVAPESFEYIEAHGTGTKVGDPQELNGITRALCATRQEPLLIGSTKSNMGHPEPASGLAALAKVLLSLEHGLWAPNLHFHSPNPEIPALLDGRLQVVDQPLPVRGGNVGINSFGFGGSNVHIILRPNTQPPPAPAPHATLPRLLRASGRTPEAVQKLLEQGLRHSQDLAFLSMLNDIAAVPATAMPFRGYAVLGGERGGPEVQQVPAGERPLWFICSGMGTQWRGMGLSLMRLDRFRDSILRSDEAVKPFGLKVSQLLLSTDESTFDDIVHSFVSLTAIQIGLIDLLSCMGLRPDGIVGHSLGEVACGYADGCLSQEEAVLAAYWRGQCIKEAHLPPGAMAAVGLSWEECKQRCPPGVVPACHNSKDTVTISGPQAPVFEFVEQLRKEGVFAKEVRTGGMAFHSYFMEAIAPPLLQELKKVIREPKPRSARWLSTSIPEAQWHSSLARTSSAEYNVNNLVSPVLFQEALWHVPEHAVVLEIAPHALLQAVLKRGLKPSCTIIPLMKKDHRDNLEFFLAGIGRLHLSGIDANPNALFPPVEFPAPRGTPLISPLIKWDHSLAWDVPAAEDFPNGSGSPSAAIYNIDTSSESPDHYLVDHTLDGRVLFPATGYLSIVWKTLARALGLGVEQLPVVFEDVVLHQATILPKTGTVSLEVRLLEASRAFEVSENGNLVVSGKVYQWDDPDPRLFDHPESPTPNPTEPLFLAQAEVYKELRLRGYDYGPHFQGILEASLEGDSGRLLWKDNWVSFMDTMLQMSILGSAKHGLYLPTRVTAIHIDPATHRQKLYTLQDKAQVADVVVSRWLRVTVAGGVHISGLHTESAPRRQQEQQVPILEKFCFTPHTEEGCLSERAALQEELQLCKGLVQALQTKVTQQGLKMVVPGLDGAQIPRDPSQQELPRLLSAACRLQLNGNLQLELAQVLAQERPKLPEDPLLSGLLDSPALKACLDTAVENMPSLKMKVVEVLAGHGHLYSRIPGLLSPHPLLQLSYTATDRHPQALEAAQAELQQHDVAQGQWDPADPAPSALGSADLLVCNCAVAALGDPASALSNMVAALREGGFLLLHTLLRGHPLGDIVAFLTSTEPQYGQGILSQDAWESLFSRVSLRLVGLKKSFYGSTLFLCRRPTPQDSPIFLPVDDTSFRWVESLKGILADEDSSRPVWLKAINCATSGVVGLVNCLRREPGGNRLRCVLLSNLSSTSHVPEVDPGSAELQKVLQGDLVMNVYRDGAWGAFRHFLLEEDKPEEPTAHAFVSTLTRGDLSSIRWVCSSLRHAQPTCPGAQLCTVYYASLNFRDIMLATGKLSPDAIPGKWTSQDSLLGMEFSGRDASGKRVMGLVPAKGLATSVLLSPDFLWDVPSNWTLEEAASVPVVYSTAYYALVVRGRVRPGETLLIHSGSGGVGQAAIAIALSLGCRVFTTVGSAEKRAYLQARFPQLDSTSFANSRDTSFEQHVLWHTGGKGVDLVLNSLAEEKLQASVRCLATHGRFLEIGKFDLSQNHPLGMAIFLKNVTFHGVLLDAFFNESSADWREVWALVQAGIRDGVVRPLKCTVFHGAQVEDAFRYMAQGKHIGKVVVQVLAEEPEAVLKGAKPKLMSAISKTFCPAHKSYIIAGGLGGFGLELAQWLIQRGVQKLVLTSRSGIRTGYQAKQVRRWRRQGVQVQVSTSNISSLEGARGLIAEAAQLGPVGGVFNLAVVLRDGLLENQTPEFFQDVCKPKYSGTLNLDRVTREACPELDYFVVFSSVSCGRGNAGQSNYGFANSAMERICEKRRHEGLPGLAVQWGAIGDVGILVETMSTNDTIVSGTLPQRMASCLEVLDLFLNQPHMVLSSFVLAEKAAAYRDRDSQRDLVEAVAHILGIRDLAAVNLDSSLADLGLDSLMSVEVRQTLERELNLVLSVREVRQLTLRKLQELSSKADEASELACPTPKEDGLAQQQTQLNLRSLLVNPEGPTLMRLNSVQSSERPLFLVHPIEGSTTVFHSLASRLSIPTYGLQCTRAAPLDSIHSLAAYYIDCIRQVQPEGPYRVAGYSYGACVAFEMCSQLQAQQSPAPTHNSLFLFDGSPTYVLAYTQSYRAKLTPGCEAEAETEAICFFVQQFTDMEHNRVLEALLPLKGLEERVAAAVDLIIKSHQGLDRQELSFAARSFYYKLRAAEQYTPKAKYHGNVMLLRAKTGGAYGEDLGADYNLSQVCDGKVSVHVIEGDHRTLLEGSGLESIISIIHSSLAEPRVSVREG
Chain of Disintegrin and metalloproteinase domain-containing protein 17 (P78536 whole entry, the tested form may be a part): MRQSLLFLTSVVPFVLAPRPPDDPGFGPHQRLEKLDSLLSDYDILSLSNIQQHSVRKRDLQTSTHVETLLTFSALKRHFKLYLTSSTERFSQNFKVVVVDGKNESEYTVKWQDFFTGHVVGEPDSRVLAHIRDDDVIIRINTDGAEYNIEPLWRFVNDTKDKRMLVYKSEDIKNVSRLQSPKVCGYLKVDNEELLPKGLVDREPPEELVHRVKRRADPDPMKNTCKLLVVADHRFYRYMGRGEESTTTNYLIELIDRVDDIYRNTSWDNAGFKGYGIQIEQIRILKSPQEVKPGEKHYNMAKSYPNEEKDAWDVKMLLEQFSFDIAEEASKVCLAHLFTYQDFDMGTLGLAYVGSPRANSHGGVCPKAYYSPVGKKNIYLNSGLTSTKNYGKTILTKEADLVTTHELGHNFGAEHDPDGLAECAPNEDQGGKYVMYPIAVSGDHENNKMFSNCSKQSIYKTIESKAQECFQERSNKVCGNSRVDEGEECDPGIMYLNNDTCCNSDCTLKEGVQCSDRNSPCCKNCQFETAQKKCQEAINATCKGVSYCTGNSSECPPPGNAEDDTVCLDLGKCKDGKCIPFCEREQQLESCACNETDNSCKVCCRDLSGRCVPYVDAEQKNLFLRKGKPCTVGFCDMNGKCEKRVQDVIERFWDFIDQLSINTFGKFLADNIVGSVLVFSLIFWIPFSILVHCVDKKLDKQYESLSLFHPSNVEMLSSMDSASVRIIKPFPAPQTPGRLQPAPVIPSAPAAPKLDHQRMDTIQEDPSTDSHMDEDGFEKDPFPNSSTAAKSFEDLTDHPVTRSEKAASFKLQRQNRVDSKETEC
Chain of Paired box protein Pax-8 (Q06710 whole entry): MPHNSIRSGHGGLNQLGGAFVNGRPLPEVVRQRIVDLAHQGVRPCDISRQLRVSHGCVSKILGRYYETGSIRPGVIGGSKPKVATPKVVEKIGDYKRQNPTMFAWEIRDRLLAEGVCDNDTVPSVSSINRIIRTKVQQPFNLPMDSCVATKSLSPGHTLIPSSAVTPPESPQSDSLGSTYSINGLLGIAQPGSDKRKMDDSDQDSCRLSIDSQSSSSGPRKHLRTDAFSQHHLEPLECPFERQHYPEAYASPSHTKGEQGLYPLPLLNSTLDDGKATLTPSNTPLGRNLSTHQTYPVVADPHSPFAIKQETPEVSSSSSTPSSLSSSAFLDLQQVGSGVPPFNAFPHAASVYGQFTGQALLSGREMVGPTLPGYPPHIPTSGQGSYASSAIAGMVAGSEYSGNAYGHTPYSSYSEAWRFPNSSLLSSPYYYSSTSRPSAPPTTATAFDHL
Chain of Luciferin 4-monooxygenase (P08659 whole entry): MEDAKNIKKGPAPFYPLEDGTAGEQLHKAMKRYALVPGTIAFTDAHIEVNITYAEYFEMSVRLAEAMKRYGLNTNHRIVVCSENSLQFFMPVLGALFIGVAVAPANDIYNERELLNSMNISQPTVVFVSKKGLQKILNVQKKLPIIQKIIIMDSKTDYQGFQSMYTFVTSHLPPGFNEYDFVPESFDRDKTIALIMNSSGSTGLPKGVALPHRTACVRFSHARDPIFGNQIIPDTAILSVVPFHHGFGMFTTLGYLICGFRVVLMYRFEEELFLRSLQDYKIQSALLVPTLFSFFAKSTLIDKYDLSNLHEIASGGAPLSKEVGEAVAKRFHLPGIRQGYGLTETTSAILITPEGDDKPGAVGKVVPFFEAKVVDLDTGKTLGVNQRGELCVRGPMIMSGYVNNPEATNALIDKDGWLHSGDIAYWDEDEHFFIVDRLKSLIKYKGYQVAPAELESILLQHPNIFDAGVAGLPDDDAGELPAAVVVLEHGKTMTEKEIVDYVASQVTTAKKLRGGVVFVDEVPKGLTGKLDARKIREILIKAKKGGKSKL
Chain of Phospholipase A2 (P04054 whole entry): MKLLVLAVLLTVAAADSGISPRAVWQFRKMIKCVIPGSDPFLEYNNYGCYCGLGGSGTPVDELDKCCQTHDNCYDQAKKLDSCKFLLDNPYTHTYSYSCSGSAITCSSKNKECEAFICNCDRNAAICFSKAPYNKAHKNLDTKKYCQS

- IC50 [2]: 50.3 µM (active)
SMILES: CCN(CC)c1ccc(Nc2nc(Cl)ncc2Br)cc1
- CC50 [1]: 100 µM (active)

SMILES: O=C(O)C1C2C=CC(C2)C1C(=O)NCc1cccs1 (configuration not stated)
- EC50 [3]: > 112 µM (not active)
- EC50 [4]: > 112 µM (not active)
- AC50 (Caspase-6): 14.8 µM (active)

- IC50 [5]: > 69.4 µM (inactive)
SMILES: COc1cccc(C(=O)c2c(-c3ccccc3)ncc3cc(OC)c(OC)cc23)c1
- IC50 [6]: > 69.4 µM (inactive)

- IC50 [7]: 9.27 µM (active)
SMILES: Cc1cc(N2CCN(c3nc(-c4ccccc4)cs3)CC2)c2ccccc2n1

- IC50 (Fatty acid synthase [8]): 9.15 µM (active)
- IC50 (Fatty acid synthase [9]): 12.7 µM (active)
SMILES: CC(Cc1ccccc1)=NNS(=O)(=O)c1ccc([N+](=O)[O-])cc1

SMILES: COc1ccc(C(O)(C2CCCCC2)C(CN2CCOCC2)c2ccccc2)cc1 (configuration not stated)
- AC50 [10]: 5.2 µM (active)
- AC50 [11]: 1.09 µM (active)
- AC50 [12]: 7.26 µM (active)
- AC50 [13]: 11.1 µM (active)

- IC50 [7]: 80 µM (inactive)
SMILES: O=C(CCCN1C(=O)C(=Cc2ccc3c(c2)OCO3)SC1=S)Nc1ccc(C(=O)O)c(O)c1

- IC50 [5]: > 69.4 µM (inactive)
SMILES: Cc1ccc(S(=O)(=O)N2CCC(=O)N([C@H](COC(=O)Nc3ccccc3)Cc3ccccc3)CC2)cc1
- IC50 [6]: > 7.72 µM (active)

- EC50 [14]: 4.77 µM (active)
- IC50 (Cysteine protease ATG4B): 16.4 µM (active)
- IC50 (Phospholipase A2): 11.6 µM (active)
SMILES: CC(C)Oc1ccc(C(CC(=O)NCc2ccco2)c2ccccc2)cc1 (configuration not stated)

SMILES: C[C@@H]1CN([C@H](C)CO)C(=O)c2c(c3ccccc3n2C)-c2ccccc2CO[C@H]1CN(C)S(=O)(=O)c1cccc(F)c1
- AC50 (Paired box protein Pax-8): 19.2 µM (active)
- AC50 [15]: 4.51 µM (active)
